Laboratory results taken from ChEMBL document CHEMBL1201862, “PubChem BioAssay data set” (2004).
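Dose response: 5 concentrations. Exposure: 48 h. Format: 96-well plates. Endpoint: linear interpolation; highest concentration if not reached. GI50 = concentration required for 50% inhibition of growth.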 Active and inactive are the calls of the source. Cut-off read from the data, not from the text of the source: active = GI50 up to about 1.1 µM and inactive = higher.

Experiments:
Assay in all cases: NCI-60 cell line screen, 48 h
[1] = system: NCI-H460
[2] = system: UACC-257
[3] = system: K562
[4] = system: KM12
[5] = system: OVCAR-4
[6] = system: HCT-116
[7] = system: OVCAR-5
[8] = system: Malme-3M
[9] = system: A549
[10] = system: LOX IMVI
[11] = system: SN12C
[12] = system: CAKI-1
[13] = system: COLO 205
[14] = system: SW-620
[15] = system: NCI-H23
[16] = system: A498
[17] = system: HOP-92
[18] = system: DMS-114
[19] = system: EKVX
[20] = system: NCI/ADR-RES

Row | SMILES | GI50 [1] | GI50 [2] | GI50 [3] | GI50 [4] | GI50 [5] | GI50 [6] | GI50 [7] | GI50 [8] | GI50 [9] | GI50 [10] | GI50 [11] | GI50 [12] | GI50 [13] | GI50 [14] | GI50 [15] | GI50 [16] | GI50 [17] | GI50 [18] | GI50 [19] | GI50 [20]
1 | O=C(C=P(c1ccccc1)(c1ccccc1)c1ccccc1)CC(=S)CC(=O)C=P(c1ccccc1)(c1ccccc1)c1ccccc1 | 4.36 µM (inactive) | 3.15 µM (inactive) | 2.47 µM (inactive) | 3.81 µM (inactive) | 7.5 µM (inactive) | 2.86 µM (inactive) | 18.2 µM (inactive) | 5.01 µM (inactive) | 4.17 µM (inactive) | 3.53 µM (inactive) | 3.39 µM (inactive) | 16.2 µM (inactive) | 1.89 µM (inactive) | 4.29 µM (inactive) | 3.14 µM (inactive) | 4.14 µM (inactive) | 1.65 µM (inactive) | 3.41 µM (inactive) | 21.6 µM (inactive) | 
2 | C[N+](C)(C)CC(=O)N/N=C(\CCC(=O)NCCc1ccccc1)CC(=O)c1ccccc1 | > 100 µM (inactive) | > 100 µM (inactive) | > 100 µM (inactive) | > 100 µM (inactive) | > 100 µM (inactive) | > 100 µM (inactive) | > 100 µM (inactive) | > 100 µM (inactive) | > 100 µM (inactive) | > 100 µM (inactive) | > 100 µM (inactive) | > 100 µM (inactive) | > 100 µM (inactive) | > 100 µM (inactive) | > 100 µM (inactive) | > 100 µM (inactive) | > 100 µM (inactive) | > 100 µM (inactive) | > 100 µM (inactive) | 
3 | COc1cc(NS(C)(=O)=O)ccc1Nc1c2ccccc2nc2c1[nH]c1ccc(NC3OC(CO)C(O)C(O)C3O)cc12 (stereo not drawn) | < 0.01 µM (active) | 0.74 µM (active) | 0.191 µM (active) | 0.207 µM (active) | 1.36 µM (inactive) | 0.0472 µM (active) | 0.444 µM (active) | 0.0468 µM (active) | < 0.0134 µM (active) | < 0.0154 µM (active) | 0.0203 µM (active) | < 0.01 µM (active) | 0.26 µM (active) | < 0.0348 µM (active) | 0.0215 µM (active) | 0.129 µM (active) | 0.0224 µM (active) | < 0.01 µM (active) | 0.782 µM (active) | 2.39 µM (inactive)
